According to patent US20260335282A1, “NOVEL 3-ARYLIDENE-2-INDOLINONE DERIVATIVES FOR THERAPEUTIC USE” (ISTANBUL UNIVERSITESI REKTORLUGU, priority 2022, published 2026):
Several values for one entry are separate records, joined by “and”; a condition that tells them apart may be missing. Identical values can stand only once. Entries after “also recorded” stand apart in the source; their conditions may differ.

Tests used:
[1] = tested on: HUVEC cells; assay: MTT cytotoxicity, healthy cells HUVEC; assay type: cell-based, human; details: for Selectivite Index, HUVEC (Table 2): HUVEC vs colon or pancreas cancer cells; for Selectivite Index, HUVEC (Table 2) / Selectivite Index (SI), HUVEC (Table 1): cancer line not given; for IC50: MTT; for Selectivite Index (SI), HUVEC (Table 1): HUVEC vs breast or kidney cancer cells
How it was run: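 Read-out is MTT formazan absorbance at 570 nm with 630 nm reference, after 4 h with 5 mg/ml MTT and DMSO solubilisation. Treatment at 0.1, 1, 5 and 10 μM lasted 48 and/or 72 h; viability is relative to DMSO-matched controls, and IC50 values derive from dose-response curves.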

[2] = tested on: general tyrosine kinase activity in HCT116 colon cancer cells; assay: General tyrosine kinase activity (ELISA) in HCT-116 cells; assay type: cell-based, human; details: 72 hours, IC50 concentration
Description: Takara Universal Tyrosine Kinase Assay Kit is used to determine the effects of 11 2-indolinone compounds (Y1, Y2, Y3, Y4, Y5, Y8, […], […], Y21, Y23, 20C, 22C) on general tyrosine kinase activity in cancer cells. Cells are seeded in 6-well plates (4.10^5 cells/well) and the IC50 concentration of each selected molecule is performed to the cells for 48 or 72 hours. Cells in the control group are incubated with medium only. At the end of the incubation period, the cells in each well are washed with PBS and cells are removed from the wells using a cell scraper via 1 ml of the extraction buffer in the kit. The cell lysate is transferred to ependorf tubes and centrifuged at 10.000 g for 10 minutes at +4° C. and the supernatant is used as a sample for activity determination. […] The reaction is finished by adding 100 μl of stop solution to each well and the optical density in each well is measured at 405 nm with a microplate reader (BioTek, USA). The tyrosine kinase activity in each sample is calculated from the standard curve obtained from the absorbance values of the standard solutions with the kit (Chan W Y, Lau P M, Yeung K W, Kong S K. The second generation tyrosine kinase inhibitor dasatinib induced eryptosis in human erythrocytes—An in vitro study. Toxicol Lett. 2018; 295:10-21). […]

[3] = tested on: MIAPaCa-2 cells; assay: MTT cytotoxicity, pancreas cancer cells MIAPaCa-2; assay type: cell-based, human; details: for selectivity index: MCF-10F/Beas2b vs MIAPaCa-2
How it was run: (§1)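 Cells were seeded at 5000 per well and treated next day with compound at 0.1, 1, 5 and 10 μM (final) for 48 and/or 72 h, with matched DMSO controls. MTT was added for 4 h and formazan was dissolved in DMSO and read at 570/630 nm. % viability against control gave IC50 from dose-response curves.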

[4] = tested on: human cancer cells; assay: MTT cell viability, human cancer cells overall; assay type: cell-based; details: cell line as discussed at the place
Text: The cytotoxicity, general tyrosine kinase inhibitory effects and cell death (apoptosis/necrosis) assays of 1-benzyl-3-(1H-indol-3-ylmethylidene)-1,3-dihydro-2H-indol-2-one derivatives (Formula 5) of the present invention are studied by the following methods. […] HUVEC (human umbilical vein endothelial cell), MCF-10F (human breast epithelial cell) and Beas2b (human lung bronchial epithelial cell) cell lines have been used as healthy control cells in MTT experiments.
Beas2b (human lung bronchiole epithelial cell) and HEK293 (renal tubule epithelium) cells used as normal cell lines were cultured in RPMI medium, and HUVEC (human umbilical cord endothelial cells) and MCF-10F (human breast epithelial cell) cells are cultured in DMEM medium containing 100 µg/ml penicillin/streptomycin. The cells, which covered 70% of the culture flask, are washed with phosphate buffer and then removed from the surface of the flask by application of trypsin-ethylenediamine tetraacetic acid (Trypsin-EDTA; 0.25%) solution, passaged, counted and seeded on appropriate plates before each experiment. Cells are treated with a total of 45 2-indolinone compounds (5) at concentrations of 0.1, 1, 5 and 10 μM. Stock compounds are prepared in 1 ml dimethylsulfoxide (DMSO) and 4 different dilutions were prepared with medium and performed to the cells. Control group cells are treated with DMSO at a similar concentration to the experimental groups.
MTT (3-(4,5-dimethylthiazol-2-yl)-2,5-diphenyl-2H-tetrazolium bromide) colorimetric assay provides quantitation of viable cells with ongoing mitochondrial activity in culture medium. According to the standard procedure in cell culture conditions, cells are maintained in RPMI-1640 and DMEM culture media containing 10% FBS and 1% penicillin/streptomycin. The trypan blue test is used for cell counts.
The effects of 45 2-indolinone compounds (5) on cell viability in all cancer cell lines are investigated by MTT assay. Cells are seeded in a 96-well flat bottom plate with 5000 cells in each well and 2-indolinone compounds (5) at concentrations of 0.1, 1, 5 and 10 μM are performed to the cells the next day. After 48 and/or 72 hours following treatment with 2-indolinone compounds, 50 μl of the supernatant is slowly discarded (as it was acid medium) and MTT at a concentration of 5 mg/ml is added to each well in a volume of 10 μl. After incubation for 4 hours, the formazan crystals formed in the wells are dissolved by adding 100 μl DMSO and the optical density is read at 570 nm test wavelength and 630 nm reference wavelength. Cell viability is expressed as % cell viability by comparing the absorbance of control and test wells. IC50 value is calculated from the dose-response curves prepared for each compound. In addition, the possible DMSO effect is eliminated by preparing negative control wells compatible with the amount of DMSO contained in the compounds. To understand the reaction of the compounds with MTT, cell-free (MTT+compounds) negative controls are prepared at the concentrations used (Mosmann, 1983). […] The absorbance values obtained are compared to the control and statistically evaluated by unpaired t-test using “Graphpad Prism 5.04” software. “P<0.05” is accepted as significant. When evaluating cytotoxic effects, the present inventors aim for the inventive compounds to be effective in cancer cells and ineffective in healthy cells. […]

[5] = tested on: general tyrosine kinase activity in MIA PaCa-2 pancreas cancer cells; assay: General tyrosine kinase activity (ELISA) in MIAPaCa-2 cells; assay type: cell-based, human; details: 72 hours, IC50 concentration
Description: (§2) Takara Universal Tyrosine Kinase Assay Kit is used to determine the effects of 11 2-indolinone compounds (Y1, Y2, Y3, Y4, Y5, Y8, […], […], Y21, Y23, 20C, 22C) on general tyrosine kinase activity in cancer cells. Cells are seeded in 6-well plates (4.10^5 cells/well) and the IC50 concentration of each selected molecule is performed to the cells for 48 or 72 hours. Cells in the control group are incubated with medium only. At the end of the incubation period, the cells in each well are washed with PBS and cells are removed from the wells using a cell scraper via 1 ml of the extraction buffer in the kit. The cell lysate is transferred to ependorf tubes and centrifuged at 10.000 g for 10 minutes at +4° C. and the supernatant is used as a sample for activity determination. After the extracts obtained from the control and experimental groups are diluted 1:25, 40 μl extracts is transferred to two wells in the 96-well plate in the kit. In addition, the standard solution in the kit is diluted according to the kit instructions and each concentration is transferred 40 μl into three wells. 10 μl of 40 mM ATP-2Na solution is added to all wells and the plate is incubated at 37° C. for 30 minutes. After incubation, all wells are washed 4 times with wash buffer. 100 μl of blocking solution is added to each well and incubated again at 37° C. for 30 minutes. After incubation, the liquid in the wells is discarded and 50 μl of anti-phosphotyrosine-HRP solution is added to each well and incubated at 37° C. for 30 minutes. The wells are washed again four times with wash buffer and 100 μl of HRP-substrate solution (TMBZ) is added to each well and incubated at 37° C. for 15 minutes. The reaction is finished by adding 100 μl of stop solution to each well and the optical density in each well is measured at 405 nm with a microplate reader (BioTek, USA). The tyrosine kinase activity in each sample is calculated from the standard curve obtained from the absorbance values of the standard solutions with the kit (Chan W Y, Lau P M, Yeung K W, Kong S K. The second generation tyrosine kinase inhibitor dasatinib induced eryptosis in human erythrocytes—An in vitro study. Toxicol Lett. 2018; 295:10-21). This activity is normalized compared to the control group by dividing by the amount of protein in each sample.
(§3) The effects of 11 2-indolinone compounds (Y1, Y2, Y3, Y4, Y5, Y8, Y14, Y21, Y23, 20C and 22C) having the structure of formula (5), which are prominent with their cytotoxicity in A498, MIAPaCa-2 and HCT-116 cancer cell lines and nontoxic properties in healthy cells, on general tyrosine kinase activity in cancer cells are determined.

[6] = tested on: HCT-116 cells; assay: MTT cytotoxicity, colon cancer cells HCT-116; assay type: cell-based, human
How it was run: as §1

[7] = tested on: general tyrosine kinase activity in A498 kidney cancer cells; assay: General tyrosine kinase activity (ELISA) in A498 cells; assay type: cell-based, human; details: IC50 concentration
Description: as §2, with “After incubation, all wells are washed 4 times with wash buffer. 100 μl of blocking solution is added to each well and incubated again at 37° C. for 30 minutes. After incubation, the liquid in the wells is discarded and 50 μl of anti-phosphotyrosine-HRP solution is added to each well and incubated at 37° C. for 30 minutes. The wells are washed again four times with wash buffer and 100 μl of HRP-substrate solution (TMBZ) is added to each well and incubated at 37° C. for 15 minutes.” left out, “This activity is normalized compared to the control group by dividing by the amount of protein in each sample.” left out
as §3

[8] = no * mark (incubation time not specified)
[9] = MTT, no * mark (incubation time not specified)

Row | SMILES | Selectivite Index, HUVEC (Table 2) [1] | IC50 [1, 8] [nM] | tyrosine kinase activity compared to control [2] | selectivity index [3] | IC50 [3, 9] [nM] | potency/selectivity compared with sunitinib malate [4] | general tyrosine kinase activity compared to control [5] | IC50 [6, 8] [nM] | Selectivite Index (SI), HUVEC (Table 1) [1] | general tyrosine kinase activity compared to control ([7]; 72 h) | IC50 ([1]; Homo sapiens, HUVEC, no * mark (incubation time not given)) [nM] | IC50 ([3]; Homo sapiens, MIA PaCa-2, MTT, no * mark (incubation time not given)) [nM] | general tyrosine kinase activity compared to control ([7]; 48 h) | IC50 ([6]; Homo sapiens, HCT-116, no * mark (incubation time not given)) [nM]
1 | O=C1/C(=C\c2c[nH]c3ccccc23)c2cc(OC(F)(F)F)ccc2N1Cc1ccccc1 [Y4] | 4.28 and 4.60 | 2440 | did not cause a significant change | > 19 | 530 | more potent than Sunitinib malate | significantly decreased; also recorded: decreased the general tyrosine kinase activity | 570 |  |  |  |  |  | 
2 | Cc1ccc2c(c1)/C(=C/c1c[nH]c3ccccc13)C(=O)N2Cc1cccc(F)c1 [Y8] | 4.07 | 2200 |  | > 19 | 540 |  | significantly decreased; also recorded: decreased the general tyrosine kinase activity | 1210 | 2.36 | did not cause a significant change |  |  |  | 
3 | O=C1/C(=C\c2c[nH]c3ccccc23)c2ccccc2N1Cc1ccccc1 [Y1] | 6.60 | 2840 |  | > 23 | 430 |  | significantly decreased; also recorded: decreased the general tyrosine kinase activity | 2640 |  |  |  |  |  | 
4 | Cc1ccc2c(c1)/C(=C/c1c[nH]c3ccccc13)C(=O)N2Cc1ccccc1 [Y3] | 12.69 |  |  | > 77 |  |  | significantly decreased; also recorded: decreased the general tyrosine kinase activity |  | 1.89 |  | 1650 | 130 | significantly decreased; also recorded: decreased the general tyrosine kinase activity | 2050
